Tests used:
B. subtilis MtnX = biological target: T1, B. subtilis MtnX (Bacillus subtilis, UniProt O31667); assay: UV-visible spectral shift to […] nm and 1H-NMR; type: biochemical; conditions: phosphatase reaction to DHK-MTPene; pH 8.0, 35°C; substrate made in situ by T. thermophila MtnB domain
T1 sequence (O31667 1-235): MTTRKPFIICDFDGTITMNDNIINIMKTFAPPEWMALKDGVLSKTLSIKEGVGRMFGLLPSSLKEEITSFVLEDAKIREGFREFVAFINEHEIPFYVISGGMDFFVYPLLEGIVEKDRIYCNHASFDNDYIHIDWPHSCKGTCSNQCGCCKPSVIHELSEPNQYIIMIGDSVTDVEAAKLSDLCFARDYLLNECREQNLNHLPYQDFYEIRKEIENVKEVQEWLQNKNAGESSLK

MtnB domain = biological target: T2, MtnB domain (Tetrahymena thermophila, UniProt I7MAL0); assay: UV-visible and 1H-NMR product analysis; type: biochemical; conditions: dehydratase/enolase to HK-MTPenyl-1-P; 5 mM MgCl2, pH 8.0, 35°C; substrate made in situ from MTR-1-P by MtnA; kcat only, no Km
T2 construct: gene TTHERM_00467500

Full-length MtnBD = biological target: T3, Full-length MtnBD (Tetrahymena thermophila, UniProt I7MAL0); assay: UV-visible and 1H-NMR product analysis; type: biochemical; conditions: dehydratase/enolase to HK-MTPenyl-1-P; 5 mM MgCl2, pH 8.0, 35°C; substrate made in situ from MTR-1-P by MtnA; kcat only, no Km
T3 construct: gene TTHERM_00467500
T3 sequence (I7MAL0 1-400): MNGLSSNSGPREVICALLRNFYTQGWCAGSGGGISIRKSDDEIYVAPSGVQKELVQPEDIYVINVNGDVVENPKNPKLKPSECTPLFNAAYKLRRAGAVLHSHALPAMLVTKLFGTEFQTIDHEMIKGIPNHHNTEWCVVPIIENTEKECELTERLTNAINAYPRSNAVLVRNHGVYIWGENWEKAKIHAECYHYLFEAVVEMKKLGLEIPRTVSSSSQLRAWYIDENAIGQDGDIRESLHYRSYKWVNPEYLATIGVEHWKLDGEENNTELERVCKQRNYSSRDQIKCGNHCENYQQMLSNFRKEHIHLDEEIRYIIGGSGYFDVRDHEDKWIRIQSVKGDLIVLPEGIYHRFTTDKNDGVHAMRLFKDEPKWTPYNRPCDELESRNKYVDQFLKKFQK

[1] = biological target: MtnB domain of Tetrahymena thermophila MtnBD (Met1-Ser216), histidine-tagged recombinant protein (Tetrahymena thermophila); assay: native gel or EMSA; native-PAGE, 5-20% gradient polyacrylamide gel, non-denaturing conditions, 1 ug purified protein, mass estimated against native high molecular weight markers; oligomer size from native mass over calculated monomer mass
[2] = biological target: Tetrahymena thermophila MtnBD, full-length, histidine-tagged recombinant protein (Tetrahymena thermophila); assay: as above

Molecule: CSCCC(=O)C(O)=COP(=O)(O)O [HK-MTPenyl-1-P]
- UV-visible spectral shift to 310 nm and 1H-NMR (B. subtilis MtnX): DHK-MTPene was obtained from the reaction of B. subtilis MtnX with HK-MTPenyl-1-P

Molecule: CSC[C@@H](O)[C@@H](O)C(=O)COP(=O)(O)O [MTRu-1-P]
- UV-visible and 1H-NMR product analysis (MtnB domain): MtnB domain catalyzed the dehydration/enolization reactions to convert MTRu-1-P to HK-MTPenyl-1-P
- UV-visible and 1H-NMR product analysis (Full-length MtnBD): T. thermophila MtnBD catalyzed the conversion of MTRu-1-P to HK-MTPenyl-1-P

Molecule: MtnB domain of Tetrahymena thermophila MtnBD (Met1-Ser216), histidine-tagged recombinant protein (domain or fragment)
- stoichiometry N [1]: 6

Molecule: Tetrahymena thermophila MtnBD, full-length, histidine-tagged recombinant protein (enzyme)
- stoichiometry N [2]: 6
